From patent publication US20220016200A1, “PHARMACEUTICAL COMPOSITION FOR THE TREATMENT OF CYSTIC FIBROSIS” (GALENUS G.H. AG, priority 2018, published 2022)
Bridge positions count the residues as written; N and C are the ends. Square brackets hold non-standard residues; d marks the D form. Peptide text beside a SMILES is read from it. * marks the point of attachment. Heptanoyl(5-Me) = CCC(C)CCCC(=O)*; Dab = NCC[C@H](N)C(=O)O

Key:
A. nosocomialis 1461911 [1] = assay: Checkerboard colistin sulphate (CS) plus teicoplanin (TP), MIC/FIC and MBC/FBC; format: cell-based, Acinetobacter nosocomialis
Description: Checkerboard analysis to determine minimal inhibitory concentration (MIC)/fractional inhibitory concentration (FIC) and minimal […] (MBC)/fractional […] (FBC) values of colistin sulphate (CS) plus teicoplanin (TP) for 6 Gram-negative strains with a bacterial load 5(1-10)*10^5 CFU/ml in a cation-adjusted Mueller-Hinton broth (CAMHB). • a. Antimicrobial stock solutions were prepared using sterile distilled water • b. CS was added along the ordinate; TP was added along the abscissa to 96 well, flat bottom, polystyrene panels with no treatment. Colistin alone was tested in triplicates. • c. Serial 2-fold dilutions starting with 640 μg/ml CS and 640 μg/ml TP were made; 15 μl volume of the serial dilutions were added for each agent to the appropriate wells; final volume at 30 μl • d. For each agent tested alone an additional 15 μl media was added to the well. 30 μl were added in control wells where none of the agent was tested. The negative control well contains 150 μl media without any additions • e. From an overnight bacterial culture in tryptic soy broth, 100 μL was added to 10 mL of fresh tryptic soy broth. This was then incubated at 37° C. for 1.5 hour at 180 rpm. • f. Bacteria in 120 μl CAMHB were added to each well (end concentration 5(1-10)*10^5 CFU/ml) • g. Plates were incubated at 37° C. in an ambient air incubator for 24 h • h. Turbidity at OD600 is determined with a plate photometer • i. By using a one-time inoculator 3 μl from each well of the 96-well plate were transferred to three blood agar plates. The plates were incubated over night at 37° C. in an ambient air incubator • j. MIC values are defined as lowest concentration which restricts bacterial growth to OD600 ≤0.1 • k. MBC values were determined by visual reading the lowest concentration which inhibits 99.9% of the growth of bacteria in the wells • l. Determination of the fractional inhibitory concentration (FIC) index and fractional bactericidal concentration (FBC) index and characterization of antimicrobial interactions was assessed […]
FIC calculation was carried out as: (MIC of drug A, tested in combination)/(MIC of drug A, tested alone)+(MIC of drug B, tested in combination)/(MIC of drug B, tested alone). FBC calculation was carried out just as well […]
Interactive categories were calculated from checkerboard analysis using MIC results from testing each agent alone and MIC results from the combination wells adjacent to the wells with growth in them […]
b. Indifference; FIC/FBC>0.5 to<4.0 c. Antagonism; FIC/FBC≥4.0 b. A. nosocomialis 1461911 (IHMA), colistin resistant

A. nosocomialis 1461911 [2] = assay: Checkerboard fusidic acid (FD) and colistin sulfate (CS), MIC/FIC and MBC/FBC; format: cell-based, Acinetobacter nosocomialis
Description: Checkerboard assays between fusidic acid (FD) and colistin sulfate (CS) with a bacterial load 5(1-10)*10^5 CFU/ml in cationic adapted Mueller Hinton broth (CAMHB). • a. Antimicrobial stock solutions were prepared using sterile distilled water; • b. CS was added along the ordinate; FD was added along the abscissa to 96 well, flat bottom, polystyrene panels with no treatment. Colistin alone was tested in triplicates; • c. Serial 2-fold dilutions starting with 640 […] CS and 640 μg/ml FD were made; 15 μl volume of the serial dilutions were added for each agent to the appropriate wells—final volume at 30 μl; • d. For each agent tested alone an additional 15 μl media was added to the well. 30 μl were added in control wells where none of the agent was tested. The negative control well contains 150 μl media without any additions; • e. From an overnight bacterial culture in tryptic soy broth, 100 μL was added to 10 mL of fresh tryptic soy broth. This was then incubated at 37° C. for 1.5 hour at 180 rpm; • f. Bacteria in 120 μl CAMHB were added to each well (end concentration 5(1-10)*10^5 CFU/ml); • g. Plates were incubated at 37° C. in an ambient air incubator for 24 h • h. Turbidity at OD600 is determined with a plate photometer • i. By using a one-time inoculator 3 μl from each well of the 96-well plate were transferred to three blood agar plates. The plates were incubated over night at 37° C. in an ambient air incubator; • j. MIC values are defined as lowest concentration which restricts bacterial growth to OD600≤0.1; • k. MBC values were determined by visual reading the lowest concentration which inhibits 99.9% of the growth of bacteria in the wells; • l. Determination of the fractional inhibitory concentration (FIC) index and fractional bactericidal concentration (FBC) index and characterization of antimicrobial interactions was assessed;
FIC calculation was carried out as: (MIC of drug A, tested in combination)/(MIC of drug A, tested alone)+(MIC of drug B, tested in combination)/(MIC of drug B, tested alone). FBC calculation was carried out just as well;
Interactive categories were calculated from checkerboard analysis using MIC results from testing each agent alone and MIC results from the combination wells adjacent to the wells with growth in them.
Determination of the fractional inhibitory concentration (FIC) index and fractional bactericidal concentration (FBC) index and characterization of antimicrobial interactions was assessed:
(ii) Indifference; FIC/FBC>0.5 to <4.0
(iii) Antagonism; FIC/FBC≥4.0
b. Acinetobacter nosocomialis 1461911 (IHMA), colistin resistant (3xCS 4/8)

[3] = tested on: A. nosocomialis strain (1204194 IHMA); assay: Colistin MIC of the susceptible strain used in the mouse model; format: cell-based; conditions: Acinetobacter nosocomialis; colistin susceptible A. nosocomialis strain 1204194 IHMA
Description: One colistin susceptible (MIC 1 mg/L) A. nosocomialis strain (1204194 IHMA) and one colistin resistant (MIC 4 mg/L) A. nosocomialis strain (1461911 IHMA) are used. […] Fresh brain heart infusion broth (Merck, Darmstadt, Germany) bacterial cultures, in an aerobic atmosphere in the logarithmic growth phase (4-5 hours) at 37° C., are adjusted to a concentration of 1.0×10^6 colony forming units (CFU)/mL, as verified by both spectrophotometry (OD600 0.01-0.02 nm) and colony counting.

CCC(C)CCCC(=O)N[C@@H](CCN)C(=O)N[C@H](C(=O)N[C@@H](CCN)C(=O)N[C@H]1CCNC(=O)[C@H]([C@@H](C)O)NC(=O)[C@H](CCN)NC(=O)[C@H](CCN)NC(=O)[C@H](CC(C)C)NC(=O)[C@@H](CC(C)C)NC(=O)[C@H](CCN)NC1=O)[C@@H](C)O (stereo partly drawn) [CS, colistin sulphate] ({Heptanoyl(5-Me)}-[Dab]T[Dab][Dab][Dab][dL]L[Dab][Dab]T; lactam 4-C)
MIC (A. nosocomialis 1461911 [1]; Acinetobacter nosocomialis, 1461911, colistin resistant A. nosocomialis strain 1461911 IHMA, as stated for the mouse model, read-out: MIC): 4 µg/mL | MBC (A. nosocomialis 1461911 [1]; Acinetobacter nosocomialis, 1461911, A. nosocomialis, agent alone, CAMHB, 5*10^5 CFU/ml, read-out: MBC): 8 µg/mL | MIC (A. nosocomialis 1461911 [2]; A. nosocomialis 1461911, agent alone, CAMHB, 1*10^6 CFU/ml, 24 h): 4 mg/1l | MBC (A. nosocomialis 1461911 [2]; Acinetobacter nosocomialis, A. nosocomialis 1461911, agent alone, CAMHB, 1*10^6 CFU/ml): 8 µg/mL | MIC (A. nosocomialis 1461911 [2]; organism list of Example 3, Acinetobacter nosocomialis 1461911, 3x, read-out: Colistin CS MIC): 4 µg/mL | MIC [3]: 1 µg/mL
